Results published in patent publication US6455242B1, “Color photographic element containing speed improving compound” (Eastman Kodak Company, priority 1998, dated 2002).

Assay: Permanent solvent physical constant beta
Assay type: physicochemical
Conditions: permanent solvent constant as defined by Kamlet et al.
Source text: The materials of the invention can be added to a mixture containing silver halide before coating or, more suitably, be mixed with the silver halide just prior to or during coating. In either case, additional components like couplers, […], surfactants, hardeners and other materials that are typically present in such solutions may also be present at the same time. The materials of the invention are not water-soluble and cannot be added directly to the solution. They may be added directly if dissolved in an organic water miscible solution such as methanol, acetone or the like or more preferably as a dispersion. A dispersion incorporates the material in a stable, finely divided state in a hydrophobic organic solvent (often referred to as a coupler solvent or permanent solvent) that is stabilized by suitable surfactants and surface active agents usually in combination with a binder or matrix such as gelatin. The dispersion may contain one or more permanent solvents that dissolve the material and maintain it in a liquid state. Some examples of suitable permanent solvents are tricresylphosphate, N,N-diethyllauramide, N,N-dibutyllauramide, p-dodecylphenol, dibutylphthalate, di-n-butyl sebacate, N-n-butylacetanilide, 9-octadecen-1-ol, ortho-methylphenyl benzoate, trioctylamine and 2-ethylhexylphosphate. Permanent solvents can also be described in terms of physical constants such as alpha, beta and pi* as defined by M. J. Kamlet, J-L. M. Abboud, M. H. Abraham and R. W. Taft, J. Org Chem, 48, 2877(1983). The preferred permanent solvents used with the materials of the invention are those with ClogP of 5.0 or greater and beta values of 0.4 or greater or more preferably, beta values of 0.5 or greater. Preferred classes of solvents are carbonamides, phosphates, alcohols and esters. When a solvent is present, it is preferred that the weight ratio of compound to solvent be at least 1 to 0.5, or most preferably, at least 1 to 1. […]

beta | SMILES
0.71 | CCCCCCCC/C=C\CCCCCCCCO [(Z)-9-octadecen-1-ol]
0.93 | CCCCCCCCCCCC(=O)N(CCCC)CCCC [N,N-dibutyllauramide]
0.43 | Cc1ccccc1OC(=O)c1ccccc1 [ortho-methylphenyl benzoate]
